Data taken from patent publication US20220235043A1, “SUBSTITUTED SULFONAMIDE PYRROLOPYRIDINES AS JAK INHIBITORS” (ACLARIS THERAPEUTICS, INC., priority 2019, published 2022).

Columns and labels:
[1] = GI Exposure PK in Mice; format: in vivo; details: mouse, male BalbC mice, oral dose of 5 mg/kg
Description: The test compound, Example 75, was wetted with ˜0.025% of Tween-20 and triturated in a mortar and pestle, then slowly 0.5% of methyl cellulose was added to make up the final volume to 7.25 mL. The BalbC test animals were subjected to anesthesia induced with a mixture of 5% isoflurane and 0.8-1.5 L/min O2 gas flow. The formulated test compound was then dosed via oral gavage. At various time points (0.5, 1, 2, 4, 6 and 8 h) blood samples (˜100 μL) were collected from portal vein (pre-hepatic) followed by cardiac puncture (circulating) into tubes containing 2% w/v aqueous K2 EDTA solution as per time points. Post blood sampling, the gastro intestine (GI) tissues were collected from the mice at the same time points. The GI tissue was dissected into different parts as duodenum, jejunum, ileum and colon. The separated tissues were washed by flushing with PBS via oral gavage needle to remove GI content. Post collection all the tissues were blotted, weighed and homogenized with PBS buffer (pH 7.4). The blood samples were immediately placed on ice and centrifuged within 30 min at 4° C. for 5 min at 8,000 rpm to obtain plasma. Plasma was transferred by pipettes to pre-labelled centrifuge tubes and immediately transferred to −80° C. until bioanalysis. Tissue samples were placed in pre-labelled container and all samples were kept in −80° C. until homogenized. The homogenate was stored immediately in −80° C. until bioanalysis was conducted. Study samples were thawed to room temperature and 50 μL of sample was aliquoted into pre-labeled vials. To these was added 400 μL of 100% acetonitrile containing an IS (100 ng/mL; warfarin, tolbutamide and loperamide). The vials were mixed well, vortexed for 5 min, followed by centrifugation for 5 min at 14000 rpm at 4° C. The supernatant was separated and same was injected on LC-MS/MS. Plasma and GI tissue levels of test compound were determined by LC-MS analysis using a standard curve in the text matrix. Individual concentration-time data were analyzed using Phoenix WinNonlin (Version 8.1) by the non-compartmental analysis (NCA) method.

[2] = system: IL-2 stimulated STAT5 phosphorylation on Tyr694 (JAK1/3); experiment: JAK1/3 cellular target modulation: IL-2 stimulated phospho-STAT5 in human PBMC; format: cell-based; details: IL-2 25 ng/ml, read-out: IL2-STAT5 IC50
Outline: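 Thawed human PBMC (200,000/well) preincubated with compound 1 h at 37°C, then stimulated with IL-12 1.7 ng/ml for 25 min, IFNγ 10 ng/ml for 10 min, or IL-2 25 ng/ml for 5 min. Lysate phospho-STAT4 Tyr693 and phospho-STAT5 Tyr694 read by MSD; phospho-STAT1 Tyr701 by sandwich ELISA.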

[3] = biological target: T1, JAK3 (a.a. 781-1124) (Homo sapiens, UniProt P52333); experiment: JAK3 enzyme activity assay (SRCtide phosphorylation, Caliper); format: biochemical; details: 1 uM ATP; read-out: JAK3 Inhibition IC50
T1 construct: JAK3 (a.a. 781-1124, ThermoFisher); purchased ThermoFisher
T1 sequence (P52333 781-1124): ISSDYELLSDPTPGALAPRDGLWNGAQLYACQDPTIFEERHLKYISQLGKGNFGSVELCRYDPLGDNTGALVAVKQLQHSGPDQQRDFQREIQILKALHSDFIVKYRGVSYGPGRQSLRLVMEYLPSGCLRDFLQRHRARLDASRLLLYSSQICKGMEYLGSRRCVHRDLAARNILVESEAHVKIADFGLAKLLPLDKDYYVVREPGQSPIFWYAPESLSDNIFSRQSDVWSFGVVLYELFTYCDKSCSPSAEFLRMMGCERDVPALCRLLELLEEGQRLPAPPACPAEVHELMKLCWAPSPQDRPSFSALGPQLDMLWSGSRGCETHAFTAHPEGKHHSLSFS
Outline: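 Kinase reactions used 2.5 nM JAK3 (aa 781-1124), 1 μM FAM-SRCtide and 1 uM ATP in HEPES pH 7.5, MgCl2, BSA, Tween-20, 2% DMSO. Incubation was 40 min at room temperature, stopped with EDTA. Phospho/unphospho peptide separated by Caliper mobility shift; IC50 from 11-point 3-fold 4-parameter fits.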

[4] = portal vein plasma, Portal plasma

- AUC [1, 4]: 247 ng·h/mL
- Tmax [1, 4]: 2 h
- AUC ([1]; Colon): 5950 ng·h/mL
- Tmax ([1]; Colon): 4 h
- AUC ([1]; Duodenum): 1510 ng·h/mL
- Tmax ([1]; Duodenum): 0.5 h
- AUC ([1]; Ileum): 24500 ng·h/mL
- Tmax ([1]; Ileum): 2 h
- AUC ([1]; Jejunum): 13300 ng·h/mL
- Tmax ([1]; Jejunum): 0.5 h
- IC50 [2]: ≤ 100 nM
- IC50 [3]: 10 to 100 nM
Compound: Cc1nnc(-c2cnc3[nH]ccc3c2N[C@H]2C[C@@H](NS(=O)(=O)c3cccc(C#N)c3)C2)s1 [Example 75, 3-cyano-N-((1s,3s)-3-((5-(5-methyl-1,3,4-thiadiazol-2-yl)-1H-pyrrolo[2,3-b]pyridin-4-yl)amino)cyclobutyl)benzenesulfonamide]
